The values below come from patent publication US20230149336A1, “PREPARATION FOR USE AS ANTIOXIDANT” (Evonik Operations GmbH, priority 2020, published 2023).

Experiment [1] relates to NADPH oxidase (NOX). Put plainly: NADPH oxidase activity after stimulation with Angiotensin II. It is filed as cell-based, mice. As to conditions: chemiluminescence per minute, mixtures ratio 1:1. Here is the method: Moreover, the analysis of NADPH oxidase (NOX) activity after stimulation with Angiotensin II, a gold-standard inducer of NOX activation was performed.
(§1) Vessels were pre-treated with single anthocyanins (50 μg/mL) for 1 hours and then stimulated with Angiotensin II for 15 minutes prior to the acquisition. (A) Measurement of ROS production by DHR123 in vessels treated with single anthocyanins and combination of anthocyanins mixed with a ratio 1:1. (B) NADPH oxidase activity in mesenteric arteries exposed to HB or single anthocyanins or combination of anthocyanins mixed with a ratio 1:1. Data are expressed as increase of chemiluminescence per minute.

For experiment [2], the system named is mice mesenteric arteries. Put plainly: Angiotensin II-induced ROS formation (DHE, DHR123). The settings on record: 50 μg/mL for 1 hour, then Angiotensin II 15 minutes; DHE and DHR123; mixtures ratio 1:1. Format: cell-based. Here is the method: Dihydroethidium (DHE, Life Technologies) was used to evaluate production of reactive oxygen species (ROS) in mouse mesenteric arteries, as previously described. Briefly, vessels were incubated with 5 μM of DHE for 20 min and subsequently observed under a fluorescence microscope (Zeiss). Images were acquired by a digital camera system (Olympus Soft Imaging Solutions). […] After treatment, vessels were incubated with Krebs solution containing 5 μM DHR123 for 30 min at 37° C., and then washed two times with PBS prior to fluorescence measurement using a fluorescence microplate reader (TECAN infinite 200 Pro).
To investigate the capability of Healthberry 865® and the single anthocyanins contained on the modulation of oxidative stress, several methodological approaches were performed measuring both, total anti reactive oxygen species (ROS) capacity and their specific action on the modulation of the main machinery of ROS production, the activity of NADPH oxidase enzyme. […] The antioxidant vascular actions of single anthocyanins contained in Healthberry 865®: Delphinidin-3-rutinoside (D3-rut), Cyanidin-3-rutinoside (C3-rut), Delphinidin glucoside (DP3-glu), Cyanidin-3-glucoside (C3-glu), Petunidin-3-glucoside (PT3-glu), Delphinidin galactoside (DP3-gal), Peonidin-3-galactoside (PEO3-gal), Delphinidin-3-arabinoside (DP3-ara), Malvidin-3-galactoside (MAL3-gal), Malvidin-3-glucoside (MAL3-glu), Cyanidin-3-galactoside (C3-gal) and Cyanidin-3-arabinopyranoside (C3-arapy) were analyzed.
as §1

Experiment [3] deals with mice mesenteric arteries. Put plainly: Vascular reactivity: vasorelaxation of phenylephrine-precontracted mice mesenteric arteries. As to conditions: increasing doses (5-300 μg/mL), phenylephrine-precontracted vessels. Format: cell-based. Here is the method: Second-order branches of the mesenteric arterial tree were removed from mice to perform vascular studies. […] First, an analysis of vascular reactivity curves was performed.

“Also recorded” adds a separate entry of the source.

With `OC[C@H]1O[C@@H](Oc2cc3c(O)cc(O)cc3[o+]c2-c2cc(O)c(O)c(O)c2)[C@H](O)[C@@H](O)[C@@H]1O` [DP3-glu, Delphinidin-3-glucoside], the “NADPH oxidase (NOX) activity” value in experiment [1] is recorded as “able to reduce NOX activity”. The “Angiotensin II-induced ROS formation” value in experiment [2] is reported as “able to reproduce the antioxidant action of Healthberry 865®”. On the same counts, the results for `OC[C@H]1O[C@@H](Oc2cc3c(O)cc(O)cc3[o+]c2-c2ccc(O)c(O)c2)[C@H](O)[C@@H](O)[C@@H]1O` [C3-glu, Cyanidin-3-glucoside] are “able to reduce NOX activity; also recorded: the most powerful anthocyanins closer to the potent effect of Healthberry 865®” and “able to reproduce the antioxidant action of Healthberry 865®”.

Turning to `NCCCC[C@H](N)C(=O)O` [L-Lysine], the vasorelaxant action entry in experiment [3] was “did not evoke any vasorelaxant effect”.

Turning to `COc1cc(-c2[o+]c3cc(O)cc(O)c3cc2O[C@@H]2O[C@H](CO)[C@@H](O)[C@H](O)[C@H]2O)cc(OC)c1O` [MAL3-glu, Malvidin-3-glucoside], in experiment [1], the “NADPH oxidase (NOX) activity” value is given as “able to reduce NOX activity; also recorded: the most powerful anthocyanins closer to the potent effect of Healthberry 865®”. Moreover, the “Angiotensin II-induced ROS formation” value in experiment [2] is on record as “able to reproduce the antioxidant action of Healthberry 865®”. The matching figures for `COc1cc(-c2[o+]c3cc(O)cc(O)c3cc2O[C@@H]2O[C@H](CO)[C@H](O)[C@H](O)[C@H]2O)cc(OC)c1O` [MAL3-gal, Malvidin-3-galactoside]: “able to reduce NOX activity” and “able to reproduce the antioxidant action of Healthberry 865®”. On the same counts, the results for `C[C@@H]1O[C@@H](OC[C@H]2O[C@@H](Oc3cc4c(O)cc(O)cc4[o+]c3-c3ccc(O)c(O)c3)[C@H](O)[C@@H](O)[C@@H]2O)[C@H](O)[C@H](O)[C@H]1O` [C3-rut, Cyanidin-3-rutinoside] are “able to reduce NOX activity” and “able to reproduce the antioxidant action of Healthberry 865®”.

Turning to Peonidin-3-galactoside [PEO3-gal], in experiment [1], the “NADPH oxidase (NOX) activity” value is on record as “able to reduce NOX activity”. In addition, the “Angiotensin II-induced ROS formation” value in experiment [2] was “able to reproduce the antioxidant action of Healthberry 865®”.
